Reference: BigSolDB 2.1

COc1ccc2nc(S(=O)Cc3ncc(C)c(OC)c3C)[nH]c2c1 (stereo unspecified)
solubility (mole fraction)
Conditions | in THF | in acetone | in acetonitrile | in ethanol | in ethyl acetate | in methanol | in n-butanol | in water
278.15 K | 0.00458 | 0.00146 | 0.00118 | 0.00157 | 0.000981 | 0.00206 | 0.00128 | 4.07e-05
283.15 K | 0.00644 | 0.00173 | 0.00143 | 0.00187 | 0.00112 | 0.00264 | 0.00153 | 5e-05
288.15 K | 0.00843 | 0.00215 | 0.00182 | 0.00224 | 0.00134 | 0.00348 | 0.00196 | 6.15e-05
293.15 K | 0.0113 | 0.00265 | 0.00222 | 0.00261 | 0.00156 | 0.00435 | 0.0024 | 7.64e-05
298.15 K | 0.0146 | 0.00313 | 0.00273 | 0.00347 | 0.00185 | 0.00569 | 0.00303 | 9.36e-05
303.15 K | 0.0196 | 0.00377 | 0.00354 | 0.00413 | 0.0022 | 0.00686 | 0.0037 | 0.000115
308.15 K | 0.0259 | 0.00464 | 0.00429 | 0.00509 | 0.00253 | 0.00857 | 0.00455 | 0.000138
313.15 K | 0.0327 | 0.00541 | 0.00513 | 0.00605 | 0.00293 | 0.0106 | 0.0054 | 0.000165
318.15 K | 0.0425 | 0.00637 | 0.00607 | 0.00702 | 0.00343 | 0.0129 | 0.0065 | 0.000196
323.15 K | 0.0545 | 0.00739 | 0.00711 | 0.00832 | 0.00405 | 0.0156 | 0.00779 | 0.00023
328.15 K | 0.0663 | 0.0085 | 0.00843 | 0.00982 | 0.0047 | 0.0186 | 0.00884 | 0.000263
333.15 K | 0.0789 | 0.00982 | 0.00978 | 0.0113 | 0.00523 | 0.0216 | 0.0103 | 0.000299
